As usually defined, the inhibition is the relative decrease from the control value, in per cent. In general, solubility refers to the dissolved amount per volume that the medium holds. Low values mean little dissolved substance, high ones much dissolved substance. Broadly, the IC50 is the concentration needed to halve the response being measured.

Among the data in ChEMBL document CHEMBL5143597, “Design and synthesis of novel spirocyclic carboxylic acids as potent and orally bioavailable DGAT1 inhibitors and their biological evaluation” (Bioorg Med Chem Lett, 2022) are inhibition, solubility and IC50 values, retold here.

In one data set the target is T1, CYP1A2 (Homo sapiens, UniProt P05177).
T1 sequence (P05177 whole entry): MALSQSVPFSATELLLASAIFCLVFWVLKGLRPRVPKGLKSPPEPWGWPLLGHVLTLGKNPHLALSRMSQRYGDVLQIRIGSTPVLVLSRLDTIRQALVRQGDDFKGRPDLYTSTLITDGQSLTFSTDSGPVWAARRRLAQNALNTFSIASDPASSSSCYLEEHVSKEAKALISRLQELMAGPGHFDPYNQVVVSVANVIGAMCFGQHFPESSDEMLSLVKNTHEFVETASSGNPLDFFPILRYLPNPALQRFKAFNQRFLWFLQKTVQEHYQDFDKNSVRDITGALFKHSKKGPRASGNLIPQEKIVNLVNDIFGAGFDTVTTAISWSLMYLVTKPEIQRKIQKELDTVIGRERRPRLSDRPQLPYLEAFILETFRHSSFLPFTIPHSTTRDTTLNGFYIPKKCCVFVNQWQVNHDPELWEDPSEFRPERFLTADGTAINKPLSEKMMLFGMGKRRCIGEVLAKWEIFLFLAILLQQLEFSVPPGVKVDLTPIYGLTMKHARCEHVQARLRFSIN
The data set is described as follows: Inhibition of recombinant human CYP1A2 at 25 uM by fluorescence plate reader analysis. The data set is classed as ADME.

Another data set concerns the target CYP3A4 (Homo sapiens, UniProt P08684). The data set is described as follows: Inhibition of recombinant human CYP3A4 at 25 uM by fluorescence plate reader analysis. The class given is ADME.
For another data set, the target named is CYP2D6 (Homo sapiens, UniProt P10635). In words: Inhibition of recombinant human CYP2D6 at 25 uM by fluorescence plate reader analysis. The class given is ADME.
Data set [1] in a line: Solubility of compound in PBS at pH 2 incubated for 4 hrs under shaking condition by UV absorbance based analysis. The data set is classed as physicochemical.
A short description of data set [2]: Solubility of compound in PBS at pH 4 incubated for 4 hrs under shaking condition by UV absorbance based analysis. The class given is physicochemical.
Data set [3] is described as follows: Solubility of compound in PBS at pH 7.4 incubated for 4 hrs under shaking condition by UV absorbance based analysis. The class given is physicochemical.
The nature of data set [4]: Solubility of compound in PBS at pH 9 incubated for 4 hrs under shaking condition by UV absorbance based analysis. The data set is classed as physicochemical.
The target in data set [5] is T2, Diacylglycerol O-acyltransferase 1 (Homo sapiens, UniProt O75907).
T2 sequence (O75907 whole entry): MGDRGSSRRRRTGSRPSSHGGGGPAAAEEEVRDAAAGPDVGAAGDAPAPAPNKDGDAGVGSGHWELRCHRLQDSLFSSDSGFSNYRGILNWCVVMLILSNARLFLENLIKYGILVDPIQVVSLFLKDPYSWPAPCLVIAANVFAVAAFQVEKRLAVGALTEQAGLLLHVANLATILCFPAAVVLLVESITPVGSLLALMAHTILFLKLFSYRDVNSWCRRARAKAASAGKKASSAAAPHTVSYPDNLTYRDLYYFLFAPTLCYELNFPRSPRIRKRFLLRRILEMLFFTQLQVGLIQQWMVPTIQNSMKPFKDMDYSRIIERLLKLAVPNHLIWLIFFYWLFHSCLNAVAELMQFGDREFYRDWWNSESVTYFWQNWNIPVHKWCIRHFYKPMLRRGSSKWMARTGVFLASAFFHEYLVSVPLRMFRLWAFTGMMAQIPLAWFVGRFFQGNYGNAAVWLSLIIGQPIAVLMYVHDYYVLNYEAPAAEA
The data set is described as follows: Inhibition of human DGAT1 in serum starved HEK293 cells assessed as inhibition of triglyceride synthesis incubated for 20 mins followed by 13C-addition of 13C-oleic acid pre-complexed with BSA for 120 mins by LC-MS-based mass spectrophotometric analysis. The class given is cell-based.

Sequence of CYP3A4 (P08684 whole entry): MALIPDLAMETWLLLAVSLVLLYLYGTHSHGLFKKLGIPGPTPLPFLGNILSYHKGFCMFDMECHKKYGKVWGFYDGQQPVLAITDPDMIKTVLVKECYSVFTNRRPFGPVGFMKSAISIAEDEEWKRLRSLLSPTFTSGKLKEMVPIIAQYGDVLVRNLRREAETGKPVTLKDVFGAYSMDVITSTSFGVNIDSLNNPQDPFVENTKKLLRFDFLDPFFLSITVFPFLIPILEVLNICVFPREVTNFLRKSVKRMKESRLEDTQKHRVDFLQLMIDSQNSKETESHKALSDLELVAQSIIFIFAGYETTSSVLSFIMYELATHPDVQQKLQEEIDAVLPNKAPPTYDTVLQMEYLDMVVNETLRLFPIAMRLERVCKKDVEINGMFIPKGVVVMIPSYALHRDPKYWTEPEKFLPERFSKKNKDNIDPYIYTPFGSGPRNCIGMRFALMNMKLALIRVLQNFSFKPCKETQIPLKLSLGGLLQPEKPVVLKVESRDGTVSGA
Sequence of CYP2D6 (P10635 whole entry): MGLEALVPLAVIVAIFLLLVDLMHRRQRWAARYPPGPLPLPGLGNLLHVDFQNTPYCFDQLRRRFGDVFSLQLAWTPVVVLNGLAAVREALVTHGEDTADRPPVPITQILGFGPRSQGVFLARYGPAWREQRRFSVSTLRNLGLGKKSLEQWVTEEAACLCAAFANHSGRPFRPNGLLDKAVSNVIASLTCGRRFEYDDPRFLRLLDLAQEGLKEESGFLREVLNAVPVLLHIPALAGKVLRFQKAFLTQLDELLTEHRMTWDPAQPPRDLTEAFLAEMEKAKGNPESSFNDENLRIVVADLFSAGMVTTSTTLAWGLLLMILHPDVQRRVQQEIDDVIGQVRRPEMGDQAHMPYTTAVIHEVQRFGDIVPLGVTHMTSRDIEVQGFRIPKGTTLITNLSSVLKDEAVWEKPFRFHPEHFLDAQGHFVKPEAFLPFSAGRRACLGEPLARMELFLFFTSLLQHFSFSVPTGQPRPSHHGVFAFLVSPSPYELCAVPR

For the compound `O=C([O-])CC1CCC2(CC1)CCC(c1ccc(NC(=O)c3nnc(Nc4ccc(F)c(F)c4)o3)cn1)CC2.[Na+]` (stereo unspecified), the figures for the inhibition at 25 µM on CYP1A2, at CYP3A4 and at CYP2D6 were 13%, 17% and 5%, respectively. In addition, the solubility at 4 h is less than 6 µM in data set [1], less than 6 µM in data set [2], less than 6 µM in data set [3] and 9 µM in data set [4].

For the compound `O=C(O)C[C@H]1CC[C@H](c2ccc(-c3ccc(Nc4ccc(C(F)(F)F)nc4)cn3)cc2)CC1` [PRADIGASTAT], the IC50 in data set [5] worked out at 66 nM.

`O=C([O-])CC1CCC2(CC1)CCC(c1ccc(NC(=O)c3nnc(Nc4ccc(F)c(F)c4)o3)cc1)CC2.[Na+]` (stereo unspecified): the inhibition at 25 µM is 5% at CYP1A2, 5% at CYP3A4 and 8% at CYP2D6. Besides, the solubility at 4 h was 28 µM in data set [1], 263 µM in data set [2], 14 µM in data set [3] and 17 µM in data set [4].

With `O=C(Nc1ccc(N2CCC3(CC2)CC(C(=O)[O-])C3)nc1)c1nnc(Nc2ccc(F)c(F)c2)o1.[Na+]`, the figures for the inhibition at 25 µM at CYP1A2 and at CYP3A4 were 12% and 10%, respectively. The solubility at 4 h in data set [1] amounted to 179 µM; in data set [2] it was 36 µM; in data set [3], 1060 µM; in data set [4] it was 723 µM.
